{"source": "ChEMBL document CHEMBL4680330", "about": "“Soloxolone methyl, as a 18βH-glycyrrhetinic acid derivate, may result in endoplasmic reticulum stress to induce apoptosis in breast cancer cells” (Bioorg Med Chem, 2021)", "key": {"MDA-MB-231 [1]": {"test_system": "MDA-MB-231", "assay": "Cytotoxicity against human MDA-MB-231 cells assessed as reduction in cell viability incubated for 24 hrs by ATP based luminometry", "format": "functional", "settings": "MDA-MB-231, 24 h"}, "MDA-MB-231 [2]": {"test_system": "MDA-MB-231", "assay": "Induction of late apoptosis in human MDA-MB-231 cells assessed as increase in rate of formation of pycnotic nuclei at 10 uM by Hoechst 33342 and PI staining based fluorescence microscopic analysis", "format": "functional, cell-based", "settings": "TDE = time-dependent effect"}, "MCF7 [3]": {"test_system": "MCF7", "assay": "Induction of apoptosis in human MCF7 cells assessed as cytokeratin 18 by measuring increase in M-30 level at 10 uM incubated for 48 hrs by ELISA", "format": "functional, cell-based"}, "MCF7 [4]": {"test_system": "MCF7", "assay": "Cytotoxicity against human MCF7 cells assessed as reduction in cell viability incubated for 48 hrs by ATP based luminometry", "format": "functional", "settings": "MCF7, 48 h"}, "MDA-MB-231 [5]": {"test_system": "MDA-MB-231", "assay": "Induction of cell death in human MDA-MB-231 cells assessed as upregulation of HRK gene at 10 uM incubated for 48 hrs by RT-PCR analysis", "format": "functional, cell-based"}, "MCF7 [6]": {"test_system": "MCF7", "assay": "Induction of apoptosis in human MCF7 cells assessed as PARP level at 10 uM incubated for 24 hrs by Western blot analysis (reference value: 1)", "format": "functional"}, "MCF7 [7]": {"test_system": "MCF7", "assay": "Induction of early apoptosis in human MCF7 cells assessed as increase in pycnotic nuclei at 10 uM incubated for 24 hrs by Hoechst 33342 and PI staining based fluorescence microscopic analysis", "format": "functional, cell-based"}, "MCF7 [8]": {"test_system": "MCF7", "assay": "Induction of cell death in human MCF7 cells assessed as downregulation of RIPK gene at 10 uM incubated for 48 hrs by RT-PCR analysis", "format": "functional, cell-based"}, "MDA-MB-231 [9]": {"test_system": "MDA-MB-231", "assay": "Induction of endoplasmic reticulum stress in human MDA-MB-231 cells assessed as BIP expression at 10 uM incubated for 24 hrs by Western blot analysis (reference value: 1)", "format": "functional"}, "[10]": {"assay": "Induction of caspase 3/7 activity in human MDA-MB-231 cells assessed as induction of apoptosis by measuring late apoptotic cells at 10 uM incubated for 24 hrs by flow cytometry analysis (reference value: 1.55 %)", "format": "functional"}, "MCF7 [11]": {"test_system": "MCF7", "assay": "Induction of apoptosis in human MCF7 cells assessed as late apoptotic cells at 10 uM incubated for 24 hrs by annexin V-FITC and PI staining based flow cytometry analysis (reference value: 14.60 %)", "format": "functional"}, "MDA-MB-231 [12]": {"test_system": "MDA-MB-231", "assay": "Induction of apoptosis in human MDA-MB-231 cells assessed as pro-caspase 8 level at 10 uM incubated for 24 hrs by Western blot analysis (reference value: 1)", "format": "functional"}, "MDA-MB-231 [13]": {"test_system": "MDA-MB-231", "assay": "Cytotoxicity against human MDA-MB-231 cells assessed as reduction in cell viability incubated for 48 hrs by ATP based luminometry", "format": "functional", "settings": "MDA-MB-231, 48 h"}, "MCF7 [14]": {"test_system": "MCF7", "assay": "Induction of apoptosis in human MCF7 cells assessed as necrotic cells at 10 uM incubated for 24 hrs by annexin V-FITC and PI staining based flow cytometry analysis (reference value: 15.60 %)", "format": "functional"}, "MCF7 [15]": {"test_system": "MCF7", "assay": "Induction of apoptosis in human MCF7 cells assessed as pro-caspase 3 level at 10 uM incubated for 24 hrs by Western blot analysis (reference value: 1)", "format": "functional"}, "MCF7 [16]": {"test_system": "MCF7", "assay": "Induction of apoptosis in human MCF7 cells assessed as cleaved PARP level at 10 uM incubated for 24 hrs by Western blot analysis (reference value: 1)", "format": "functional"}, "MDA-MB-231 [17]": {"test_system": "MDA-MB-231", "assay": "Induction of apoptosis in human MDA-MB-231 cells assessed as early apoptotic cells at 10 uM incubated for 24 hrs by annexin V-FITC and PI staining based flow cytometry analysis (reference value: 0.70 %)", "format": "functional"}, "MCF7 [18]": {"test_system": "MCF7", "assay": "Induction of cell death in human MCF7 cells assessed as upregulation of TNFRSF10B gene at 10 uM incubated for 24 hrs by RT-PCR analysis", "format": "functional, cell-based"}, "MCF7 [19]": {"test_system": "MCF7", "assay": "Induction of cell death in human MCF7 cells assessed as upregulation of BECN1 gene at 10 uM measured after 48 hrs by RT-PCR analysis", "format": "functional, cell-based"}, "MDA-MB-231 [20]": {"test_system": "MDA-MB-231", "assay": "Induction of apoptosis in human MDA-MB-231 cells assessed as cleaved PARP level at 10 uM incubated for 24 hrs by Western blot analysis (reference value: 1)", "format": "functional"}, "MCF7 [21]": {"test_system": "MCF7", "assay": "Induction of ROS production in human MCF7 cells at 10 uM incubated for 24 hrs by flow cytometry analysis", "format": "functional, cell-based"}, "MDA-MB-231 [22]": {"test_system": "MDA-MB-231", "assay": "Induction of early apoptosis in human MDA-MB-231 cells assessed as increase in PI negativity at 10 uM incubated for 24 hrs by Hoechst 33342 and PI staining based fluorescence microscopic analysis", "format": "functional, cell-based"}, "[23]": {"assay": "Induction of caspase 3/7 activity in human MDA-MB-231 cells assessed as induction of apoptosis by measuring viable cells at 10 uM incubated for 24 hrs by flow cytometry analysis (reference value: 97.25 %)", "format": "functional"}, "MCF7 [24]": {"test_system": "MCF7", "assay": "Induction of late apoptosis in human MCF7 cells assessed as increase in rate of formation of pycnotic nuclei at 10 uM by Hoechst 33342 and PI staining based fluorescence microscopic analysis", "format": "functional, cell-based", "settings": "TDE = time-dependent effect"}, "MDA-MB-231 [25]": {"test_system": "MDA-MB-231", "assay": "Induction of apoptosis in human MDA-MB-231 cells assessed as necrotic cells at 10 uM incubated for 24 hrs by annexin V-FITC and PI staining based flow cytometry analysis (reference value: 0.95 %)", "format": "functional"}, "MCF7 [26]": {"test_system": "MCF7", "assay": "Induction of endoplasmic reticulum stress in human MCF7 cells assessed as IRE1-alpha expression at 10 uM incubated for 24 hrs by Western blot analysis (reference value: 1)", "format": "functional"}, "MCF7 [27]": {"test_system": "MCF7", "assay": "Induction of apoptosis in human MCF7 cells assessed as pro-caspase 8 level at 10 uM incubated for 24 hrs by Western blot analysis (reference value: 1)", "format": "functional"}, "MDA-MB-231 [28]": {"test_system": "MDA-MB-231", "assay": "Induction of late apoptosis in human MDA-MB-231 cells assessed as increase in PI […] at 10 uM by Hoechst 33342 and PI staining based fluorescence microscopic analysis", "format": "functional, cell-based", "settings": "TDE = time-dependent effect"}, "MCF7 [29]": {"test_system": "MCF7", "assay": "Induction of apoptosis in human MCF7 cells assessed as cleaved pro-caspase 3 level at 10 uM incubated for 24 hrs by Western blot analysis (reference value: 1)", "format": "functional"}, "[30]": {"assay": "Induction of caspase 3/7 activity in human MCF7 cells assessed as induction of apoptosis by measuring early apoptotic cells at 10 uM incubated for 24 hrs by flow cytometry analysis (reference value: 0.70 %)", "format": "functional"}, "MCF7 [31]": {"test_system": "MCF7", "assay": "Induction of cell death in human MCF7 cells assessed as downregulation of PARP gene at 10 uM measured after 48 hrs by RT-PCR analysis", "format": "functional, cell-based"}, "MDA-MB-231 [32]": {"test_system": "MDA-MB-231", "assay": "Induction of cell death in human MDA-MB-231 cells assessed as upregulation of BECN1 gene at 10 uM incubated for 48 hrs by RT-PCR analysis", "format": "functional, cell-based"}, "[33]": {"assay": "Induction of caspase 3/7 activity in human MCF7 cells assessed as induction of apoptosis by measuring late apoptotic cells at 10 uM incubated for 24 hrs by flow cytometry analysis (reference value: 22.90 %)", "format": "functional"}, "MDA-MB-231 [34]": {"test_system": "MDA-MB-231", "assay": "Induction of cell death in human MDA-MB-231 cells assessed as upregulation of BECN1 gene at 10 uM measured after 48 hrs by RT-PCR analysis", "format": "functional, cell-based"}, "[35]": {"assay": "Induction of caspase 3/7 activity in human MDA-MB-231 cells assessed as induction of apoptosis by measuring necrotic cells at 10 uM incubated for 24 hrs by flow cytometry analysis (reference value: 0.85 %)", "format": "functional"}, "MCF7 [36]": {"test_system": "MCF7", "assay": "Cytotoxicity against human MCF7 cells assessed as reduction in cell viability incubated for 24 hrs by ATP based luminometry", "format": "functional", "settings": "MCF7, 24 h"}}, "note": "The source made the active and inactive calls. No cut-off for these calls is given here."}
{"compound": "COC(=O)[C@@]1(C)CC[C@]2(C)CC[C@]3(C)[C@H](C(=O)C=C4[C@@]5(C)C=C(C#N)C(=O)C(C)(C)[C@@H]5CC[C@]43C)[C@@H]2C1", "values": [{"measurement": "IC50", "setting": "MDA-MB-231 [1]", "result": 6.83, "unit": "µM"}, {"measurement": "Activity", "setting": "MDA-MB-231 [2]", "result": "Tde"}, {"measurement": "Activity", "setting": "MCF7 [3]", "result": "Active"}, {"measurement": "IC50", "setting": "MCF7 [4]", "result": 4.22, "unit": "µM"}, {"measurement": "Activity", "setting": "MDA-MB-231 [5]", "result": "Active"}, {"measurement": "fold change (FC)", "setting": "MCF7 [6]", "result": 0.3}, {"measurement": "Activity", "setting": "MCF7 [7]", "result": "Active"}, {"measurement": "Activity", "setting": "MCF7 [8]", "result": "Active"}, {"measurement": "fold change (FC)", "setting": "MDA-MB-231 [9]", "result": 2}, {"measurement": "Activity", "setting": "[10]", "result": 76.4, "unit": "%"}, {"measurement": "Activity", "setting": "MCF7 [11]", "result": 18.35, "unit": "%"}, {"measurement": "fold change (FC)", "setting": "MDA-MB-231 [12]", "result": 2.1}, {"measurement": "IC50", "setting": "MDA-MB-231 [13]", "result": 5.97, "unit": "µM"}, {"measurement": "Activity", "setting": "MCF7 [14]", "result": 10.8, "unit": "%"}, {"measurement": "fold change (FC)", "setting": "MCF7 [15]", "result": 1.7}, {"measurement": "fold change (FC)", "setting": "MCF7 [16]", "result": 4.5}, {"measurement": "Activity", "setting": "MDA-MB-231 [17]", "result": 2.95, "unit": "%"}, {"measurement": "Activity", "setting": "MCF7 [18]", "result": "Active"}, {"measurement": "Activity", "setting": "MCF7 [19]", "result": "inactive"}, {"measurement": "fold change (FC)", "setting": "MDA-MB-231 [20]", "result": 6.3}, {"measurement": "Activity", "setting": "MCF7 [21]", "result": "inactive"}, {"measurement": "Activity", "setting": "MDA-MB-231 [22]", "result": "Active"}, {"measurement": "Activity", "setting": "[23]", "result": 10.35, "unit": "%"}, {"measurement": "Activity", "setting": "MCF7 [24]", "result": "Tde"}, {"measurement": "Activity", "setting": "MDA-MB-231 [25]", "result": 2.25, "unit": "%"}, {"measurement": "fold change (FC)", "setting": "MCF7 [26]", "result": 0.6}, {"measurement": "fold change (FC)", "setting": "MCF7 [27]", "result": 1.2}, {"measurement": "Activity", "setting": "MDA-MB-231 [28]", "result": "Tde"}, {"measurement": "fold change (FC)", "setting": "MCF7 [29]", "result": 1.2}, {"measurement": "Activity", "setting": "[30]", "result": 0.55, "unit": "%"}, {"measurement": "Activity", "setting": "MCF7 [31]", "result": "inactive"}, {"measurement": "Activity", "setting": "MDA-MB-231 [32]", "result": "Active"}, {"measurement": "Activity", "setting": "[33]", "result": 24.55, "unit": "%"}, {"measurement": "Activity", "setting": "MDA-MB-231 [34]", "result": "inactive"}, {"measurement": "Activity", "setting": "[35]", "result": 0.5, "unit": "%"}, {"measurement": "IC50", "setting": "MCF7 [36]", "result": 11.7, "unit": "µM"}]}
